Values joined by “and” are separate entries in the source; they are usually repeats but may differ in a detail not shown here. Identical values can stand only once. “Also recorded” adds a separate entry of the source.
How the values were obtained:
[1] = system: middle cerebral artery occlusion (MCAO) in rats; experiment: Hindlimb placing test after MCAO; assay type: in vivo, Sprague Dawley rats; design: Hindlimb Placing Total Score, Mean: scale not given here
Experimental: (§1) 4-AP was evaluated for its ability to promote functional sensorimotor improvement following ischemic stroke in rats with stable motor deficits at times remote from their ischemic events. The animal model mimics the conditions in human ischemic stroke and is produced by middle cerebral artery occlusion (MCAO), which results in extensive infarction in cerebral cortex and striatum, including the cortical spinal tract (white matter). In particular, the MCAO model in Sprague Dawley rats that was utilized in the experiments presented below mimics the conditions in human ischemic stroke. In this experiment, Sprague Dawley rats were anesthetized, subjected to a surgery resulting in middle cerebral artery occlusion (MCAO), treated with and without 4-aminopyridine and behavioral assessments were performed as described below. Surgical Procedure: A small focal stroke (infarct) was made on the right side of the surface of the brain (cerebral cortex) by middle cerebral artery occlusion (MCAO). The right side of the head was shaved with electric clippers (patch of approx 3×5 cm between eye and ear). The region was carefully cleaned with septisol. Using aseptic technique, an incision was made midway between the eye and eardrum canal. The temporalis muscle was isolated, bisected, and reflected. A small window of bone was removed via drill and rongeurs (subtemporal craniectomy) to expose the middle cerebral artery (MCA). Care was taken not to remove the zygomatic arch or to transect the facial nerve that would impair the ability of the animal to chew after surgery. […] The MCA was then transected. The temporalis muscle was then repositioned, and the incision was closed subcutaneously with sutures. The skin incision was closed with surgical staples (2-3 required). Throughout the procedure, body temperature was maintained at 37.0°±1° C., using a self-regulating heating pad connected to a rectal thermometer. Dosing: Rats were treated in accordance with the dosing schedule shown in Tables 1A, 1B, and FIG. 2, with each Phase being a two week period of time. A solution of 4-AP was used in this experiment. Dosing was started at 4 weeks after ischemic event. Treatment groups: Dosing was started 4 weeks after pMCAO surgery. During these 4 weeks, weekly behavioral assessments, as defined below, were performed. Two dose levels of 4-AP plus vehicle control were assessed, with treatment starting at 4 weeks after ischemic event. All dosing was via gastric gavage, volume not to exceed 2 mL/kg. Animals were given the first dose and behavioral assessments were performed starting 60 minutes after dosing. Animals then received the second dose that day at the appropriate time and b.i.d (preferably every 12 hours) thereafter for 2 more days (3 total days of dosing, 5 total doses). One hour after the 5th dose, animals were subjected to behavioral assessments as defined below. Following the final behavioral assessment, drug was withdrawn for 10 or 11 days, behavior was re-assessed, and then animals were re-challenged with a cross-over treatment (Phase II of Table 1B) as described in Tables 1A, 1B, followed by the same behavioral testing and dosing regimen. This cross-over was repeated one more time as well (Phase III of Table 1B) (see FIG. 2). Behavioral test details: Behavioral evaluations were done by investigators blinded to treatment assignment. As described above, behavioral assessments were timed exactly with dosing times. Animals were given the first dose, behavioral assessments were performed starting 60 minutes later, and blood was collected 90 minutes after dosing. Animals then received the second dose that day at the appropriate time and b.i.d (preferably every 12 hours) thereafter for 2 more days (3 total days of dosing, 5 total doses). One hour after the 5th dose, animals were subjected to behavioral testing. […]

[2] = system: middle cerebral artery occlusion (MCAO) in rats; experiment: Body swing test (% right swing) after MCAO; assay type: in vivo, Sprague Dawley rats
Experimental: as §1

[3] = Group II, D32, individual animals
[4] = Group II, D58, individual animals
[5] = Group II, D60, individual animals
[6] = Group III, D44, high dose phase (inferred), mean of N 15
[7] = Group III, D46, high dose phase (inferred), mean of N 15
[8] = Group III, D58, low dose phase (inferred), mean of N 15
[9] = Group III, D60, low dose phase (inferred), mean of N 15

Nc1ccncc1 [4-AP, 4-aminopyridine]
Hindlimb Placing Total Score [1, 3]: 2.00 and 1.00 (3×) and 1.50 (5×) and 0.50 | Hindlimb Placing Total Score, Mean ([1]; Group II, D32, mean of N 15): 1.37 | Hindlimb Placing Total Score [1, 4]: 2.00 and 0.00 (4×) and 1.00 and 1.50 (3×) and 0.50 | Hindlimb Placing Total Score, Mean ([1]; Group II, D58, mean of N 15): 0.83 | Hindlimb Placing Total Score [1, 5]: 0.50 (3×) and 0.00 (6×) and 1.00 | Hindlimb Placing Total Score, Mean ([1]; Group II, D60, mean of N 15): 0.23 | Hindlimb Placing Total Score, Mean [1, 6]: 0.90 | Hindlimb Placing Total Score, Mean [1, 7]: 0.30 | Hindlimb Placing Total Score, Mean [1, 8]: 0.80 | Hindlimb Placing Total Score, Mean [1, 9]: 0.70 | Hindlimb Placing Total Score, Mean ([1]; group mean N=15, Group I, Phase 1, D30, High 4-AP 2.0 mg/kg b.i.d. p.o., after first dose): 1.67 | Hindlimb Placing Total Score, Mean ([1]; group mean N=15, Group I, Phase 1, D32, High 4-AP 2.0 mg/kg b.i.d. p.o., after 5th dose): 0.97 | Hindlimb Placing Total Score, Mean ([1]; group mean N=15, Group I, Phase 2, D44, Low 4-AP 0.63 mg/kg b.i.d. p.o., after first dose): 1.33 | Hindlimb Placing Total Score, Mean ([1]; group mean N=15, Group I, Phase 2, D46, Low 4-AP 0.63 mg/kg b.i.d. p.o., after 5th dose): 1.13 | Hindlimb Placing Total Score ([1]; individual animals, Group I, Phase 1, D30, High 4-AP 2.0 mg/kg b.i.d. p.o., 60 min after first dose, 0=normal, 6=maximally impaired): 1.50 (7×) and 3.00 (2×) and 2.50 (2×) and 2.00 and 1.00 and 0.00 and 0.50 | Hindlimb Placing Total Score ([1]; individual animals, Group I, Phase 1, D32, High 4-AP 2.0 mg/kg b.i.d. p.o., 1 h after 5th dose, 0=normal, 6=maximally impaired): 1.00 and 3.00 and 1.50 (6×) and 0.00 (4×) and 0.50 (3×) | Hindlimb Placing Total Score ([1]; individual animals, Group I, Phase 2, D44, Low 4-AP 0.63 mg/kg b.i.d. p.o., 60 min after first dose, 0=normal, 6=maximally impaired): 2.00 (4×) and 3.00 and 1.50 (3×) and 0.50 (2×) and 0.00 (3×) and 2.50 and 1.00 | Hindlimb Placing Total Score ([1]; individual animals, Group I, Phase 2, D46, Low 4-AP 0.63 mg/kg b.i.d. p.o., 1 h after 5th dose, 0=normal, 6=maximally impaired): 2.00 (3×) and 3.00 and 1.50 (4×) and 0.00 (4×) and 0.50 (2×) and 1.00 | effect on hindlimb function (hindlimb placing test) ([1]; low or high dose, 4 weeks post ischemic brain injury, rats, dose responsive, reversible): effective to improve hindlimb function; also recorded: significant improvement | Body Swing Test (% right Swing) ([2]; Group I, D30, individual animals): 33.33% (3×) and 53.33% and 40.00% (2×) and 30.00% and 36.67% (5×) and 43.33% and 26.67% and 46.67% | Body Swing Test (% right Swing), Mean ([2]; Group I, D30, mean of N 15): 37.56% | Body Swing Test (% right Swing) ([2]; Group I, D32, individual animals): 43.33% (2×) and 50.00% (3×) and 53.33% (3×) and 26.67% and 33.33% (3×) and 40.00% (2×) and 30.00% | Body Swing Test (% right Swing), Mean ([2]; Group I, D32, mean of N 15): 42.22% | Body Swing Test (% right Swing) ([2]; Group I, D44, low dose phase (inferred), individual animals): 33.33% (3×) and 56.67% and 43.33% (3×) and 26.67% (2×) and 50.00% and 40.00% (2×) and 46.67% and 30.00% (2×) | Body Swing Test (% right Swing), Mean ([2]; Group I, D44, low dose phase (inferred), mean of N 15): 38.44% | Body Swing Test (% right Swing) ([2]; Group I, D46, individual animals): 36.67% (3×) and 43.33% (4×) and 33.33% (3×) and 30.00% and 53.33% and 20.00% (2×) and 40.00% | Body Swing Test (% right Swing), Mean ([2]; Group I, D46, mean of N 15): 36.44% | Body Swing Test (% right Swing) ([2]; Group II, D30, individual animals): 20.00% and 40.00% and 16.67% and 30.00% and 36.67% and 33.33% (2×) and 23.33% and 53.33% and 26.67% | Body Swing Test (% right Swing), Mean ([2]; Group II, D30, mean of N 15): 32.89% | Body Swing Test (% right Swing) [2, 3]: 33.33% (5×) and 40.00% and 43.33% (2×) and 30.00% and 46.67% | Body Swing Test (% right Swing), Mean ([2]; Group II, D32, mean of N 15): 37.78% | Body Swing Test (% right Swing) [2, 4]: 46.67% (3×) and 33.33% (3×) and 26.67% and 40.00% and 43.33% and 50.00% | Body Swing Test (% right Swing), Mean ([2]; Group II, D58, mean of N 15): 40.67% | Body Swing Test (% right Swing) [2, 5]: 43.33% and 40.00% (2×) and 33.33% (2×) and 46.67% (2×) and 36.67% and 50.00% (2×) | Body Swing Test (% right Swing), Mean ([2]; Group II, D60, mean of N 15): 42.67% | Body Swing Test (% right Swing), Mean [2, 6]: 39.56% | Body Swing Test (% right Swing), Mean [2, 7]: 40.44% | Body Swing Test (% right Swing), Mean [2, 8]: 34.89% | Body Swing Test (% right Swing), Mean [2, 9]: 35.11% | effect on global body control (body swing test) ([2]; low or high dose, rats after MCAO, reversible and dose-dependent): effective to improve the percentage of rightward over total swings; also recorded: significant improvement

Reference: US20130030025A1, “USE OF POTASSIUM CHANNEL BLOCKERS TO TREAT CEREBRAL PALSY” (priority 2011, published 2013)
